{
  "source": "paper PMC11148329",
  "about": "(Frontiers in Cellular and Infection Microbiology, 2024)",
  "key": {"α7 nAChR [1]": {"molecular_target": "T1, α7 nAChR (Homo sapiens, UniProt P36544)", "test": "cell-based", "type": "cell-based"}, "α7 nAChR [2]": {"molecular_target": "T1, α7 nAChR", "test": "cell-based", "type": "cell-based", "remark": "listed apart in the source"}, "α7 nAChR [3]": {"molecular_target": "T1, α7 nAChR", "type": "cell-based"}, "β3-α6-β2-α4-β2 nAChR": {"molecular_target": "β3-α6-β2-α4-β2 nAChR (Homo sapiens, UniProt P17787+P43681+Q15825)", "sequence (Q05901 22-458)": "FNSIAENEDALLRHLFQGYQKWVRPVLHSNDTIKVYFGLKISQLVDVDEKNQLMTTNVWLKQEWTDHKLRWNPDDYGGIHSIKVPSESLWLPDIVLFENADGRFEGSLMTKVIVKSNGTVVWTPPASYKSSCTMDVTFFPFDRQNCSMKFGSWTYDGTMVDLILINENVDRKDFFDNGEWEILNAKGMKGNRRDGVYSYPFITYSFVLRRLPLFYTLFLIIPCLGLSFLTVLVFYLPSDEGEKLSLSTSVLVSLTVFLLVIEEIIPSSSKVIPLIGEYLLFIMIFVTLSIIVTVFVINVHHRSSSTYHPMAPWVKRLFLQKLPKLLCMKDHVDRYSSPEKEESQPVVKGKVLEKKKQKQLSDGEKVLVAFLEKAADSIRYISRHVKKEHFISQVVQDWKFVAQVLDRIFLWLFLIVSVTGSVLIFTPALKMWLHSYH", "sequence (P43681 27-627)": "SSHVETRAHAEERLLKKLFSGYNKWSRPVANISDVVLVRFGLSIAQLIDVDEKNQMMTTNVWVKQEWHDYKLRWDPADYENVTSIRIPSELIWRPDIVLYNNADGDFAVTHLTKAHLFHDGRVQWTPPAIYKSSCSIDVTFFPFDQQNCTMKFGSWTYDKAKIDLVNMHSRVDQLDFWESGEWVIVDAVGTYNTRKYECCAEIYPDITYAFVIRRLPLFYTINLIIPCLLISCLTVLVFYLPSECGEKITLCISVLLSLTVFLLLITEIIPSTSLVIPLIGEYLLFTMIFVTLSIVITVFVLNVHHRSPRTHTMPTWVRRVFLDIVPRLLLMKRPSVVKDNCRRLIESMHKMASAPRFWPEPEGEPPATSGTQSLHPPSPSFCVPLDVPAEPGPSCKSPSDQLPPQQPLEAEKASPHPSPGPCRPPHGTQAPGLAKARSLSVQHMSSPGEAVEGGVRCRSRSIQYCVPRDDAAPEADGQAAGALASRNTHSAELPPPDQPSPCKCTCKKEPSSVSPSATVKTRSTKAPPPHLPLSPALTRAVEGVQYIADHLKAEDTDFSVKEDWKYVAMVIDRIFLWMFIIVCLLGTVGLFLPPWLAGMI", "sequence (Q15825 26-494)": "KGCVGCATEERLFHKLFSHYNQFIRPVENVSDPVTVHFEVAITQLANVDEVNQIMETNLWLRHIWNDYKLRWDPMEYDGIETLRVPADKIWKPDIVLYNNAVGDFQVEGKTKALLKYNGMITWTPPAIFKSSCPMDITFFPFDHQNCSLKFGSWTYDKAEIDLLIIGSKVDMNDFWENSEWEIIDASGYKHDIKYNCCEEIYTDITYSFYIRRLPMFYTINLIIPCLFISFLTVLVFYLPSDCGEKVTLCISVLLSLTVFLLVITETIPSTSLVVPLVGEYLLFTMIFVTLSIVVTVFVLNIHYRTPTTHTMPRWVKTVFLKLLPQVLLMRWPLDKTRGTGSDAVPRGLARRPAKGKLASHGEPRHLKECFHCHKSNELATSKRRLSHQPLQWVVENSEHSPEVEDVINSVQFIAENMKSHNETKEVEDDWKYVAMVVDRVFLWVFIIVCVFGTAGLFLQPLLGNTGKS", "sequence (P17787 26-502)": "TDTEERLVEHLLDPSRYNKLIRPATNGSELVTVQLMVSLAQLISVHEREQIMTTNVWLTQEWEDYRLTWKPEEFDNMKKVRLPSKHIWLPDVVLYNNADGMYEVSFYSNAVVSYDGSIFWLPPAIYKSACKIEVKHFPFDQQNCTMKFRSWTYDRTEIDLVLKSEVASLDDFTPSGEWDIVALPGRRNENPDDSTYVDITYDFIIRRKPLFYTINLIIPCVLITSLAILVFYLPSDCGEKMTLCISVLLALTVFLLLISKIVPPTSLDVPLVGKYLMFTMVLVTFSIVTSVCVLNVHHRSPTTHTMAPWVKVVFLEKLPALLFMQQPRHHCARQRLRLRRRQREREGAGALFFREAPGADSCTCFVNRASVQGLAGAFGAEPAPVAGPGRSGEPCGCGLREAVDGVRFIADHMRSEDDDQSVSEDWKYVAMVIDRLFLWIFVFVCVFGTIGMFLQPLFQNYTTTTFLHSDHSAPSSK", "test": "cell-based"}, "(α4β2)2β2 nAChR [4]": {"molecular_target": "T2, (α4β2)2β2 nAChR (Homo sapiens, UniProt P17787+P43681)", "T2 sequence (P43681 27-627 limits assumed)": "as the sequence (P43681 27-627) above", "T2 sequence (P17787 26-502 limits assumed)": "as the sequence (P17787 26-502) above", "test": "cell-based"}, "(α4β2)2α4 nAChR [5]": {"molecular_target": "T3, (α4β2)2α4 nAChR (Homo sapiens, UniProt P17787+P43681)", "T3 sequence (P43681 29-627 limits assumed)": "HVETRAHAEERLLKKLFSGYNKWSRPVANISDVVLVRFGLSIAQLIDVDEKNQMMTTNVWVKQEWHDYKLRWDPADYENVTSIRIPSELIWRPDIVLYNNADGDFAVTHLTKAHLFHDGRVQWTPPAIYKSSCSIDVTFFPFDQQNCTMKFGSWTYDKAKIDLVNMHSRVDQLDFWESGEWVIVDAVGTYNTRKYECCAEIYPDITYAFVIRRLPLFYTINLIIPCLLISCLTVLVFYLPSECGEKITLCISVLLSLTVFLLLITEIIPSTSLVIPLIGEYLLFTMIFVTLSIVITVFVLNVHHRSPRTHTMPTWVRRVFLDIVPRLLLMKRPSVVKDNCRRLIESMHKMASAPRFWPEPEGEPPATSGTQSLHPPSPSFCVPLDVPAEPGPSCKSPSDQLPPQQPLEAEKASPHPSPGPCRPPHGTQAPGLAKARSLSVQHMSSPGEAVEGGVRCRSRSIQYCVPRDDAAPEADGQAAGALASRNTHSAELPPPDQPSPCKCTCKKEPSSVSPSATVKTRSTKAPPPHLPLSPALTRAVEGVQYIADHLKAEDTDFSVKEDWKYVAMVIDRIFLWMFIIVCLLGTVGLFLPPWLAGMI", "T3 sequence (P17787 26-502 limits assumed)": "as the sequence (P17787 26-502) above", "test": "cell-based", "settings": "read-out: ACh EC90"}, "(α3β2)2β2 nAChR [6]": {"molecular_target": "T4, (α3β2)2β2 nAChR (Homo sapiens, UniProt P17787+P32297)", "T4 sequence (P32297 32-505 limits assumed)": "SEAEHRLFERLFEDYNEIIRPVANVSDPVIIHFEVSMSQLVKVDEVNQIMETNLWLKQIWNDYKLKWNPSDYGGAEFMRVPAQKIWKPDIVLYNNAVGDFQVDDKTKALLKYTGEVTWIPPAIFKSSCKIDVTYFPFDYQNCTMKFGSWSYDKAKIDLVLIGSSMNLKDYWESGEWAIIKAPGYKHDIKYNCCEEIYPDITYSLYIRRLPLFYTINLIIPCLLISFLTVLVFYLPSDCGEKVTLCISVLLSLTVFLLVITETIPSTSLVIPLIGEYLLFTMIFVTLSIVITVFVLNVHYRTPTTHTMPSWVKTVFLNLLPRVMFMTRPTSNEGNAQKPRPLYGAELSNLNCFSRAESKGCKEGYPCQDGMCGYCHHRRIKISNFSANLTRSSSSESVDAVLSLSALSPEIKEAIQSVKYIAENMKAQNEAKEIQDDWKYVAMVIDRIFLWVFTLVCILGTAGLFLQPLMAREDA", "T4 sequence (P17787 26-502 limits assumed)": "as the sequence (P17787 26-502) above", "test": "cell-based"}, "α4β2α5 nAChR [7]": {"molecular_target": "T5, α4β2α5 nAChR (Homo sapiens, UniProt P17787+P30532+P43681)", "T5 sequence (P43681 29-627 limits assumed)": "as the sequence (P43681 29-627 limits assumed) above", "T5 sequence (P17787 26-502 limits assumed)": "as the sequence (P17787 26-502) above", "T5 sequence (P30532 23-468 partner limits assumed)": "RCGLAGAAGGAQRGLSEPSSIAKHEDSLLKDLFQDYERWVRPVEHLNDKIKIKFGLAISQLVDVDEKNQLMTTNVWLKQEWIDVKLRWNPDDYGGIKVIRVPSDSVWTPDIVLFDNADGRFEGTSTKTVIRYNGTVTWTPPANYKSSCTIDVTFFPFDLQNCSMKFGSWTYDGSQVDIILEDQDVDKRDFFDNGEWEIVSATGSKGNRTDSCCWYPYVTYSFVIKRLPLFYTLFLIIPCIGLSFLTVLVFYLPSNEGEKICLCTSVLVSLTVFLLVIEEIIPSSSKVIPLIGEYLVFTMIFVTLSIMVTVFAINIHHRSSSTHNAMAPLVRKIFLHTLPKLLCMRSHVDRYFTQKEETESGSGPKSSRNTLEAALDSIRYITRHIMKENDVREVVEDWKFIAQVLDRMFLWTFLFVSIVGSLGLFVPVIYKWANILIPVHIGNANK"}, "(α3β4)2β4 nAChR [8]": {"molecular_target": "T6, (α3β4)2β4 nAChR (Homo sapiens, UniProt P30926+P32297)", "T6 sequence (P32297 32-505 limits assumed)": "as the sequence (P32297 32-505 limits assumed) above", "T6 sequence (P30926 22-498 limits assumed)": "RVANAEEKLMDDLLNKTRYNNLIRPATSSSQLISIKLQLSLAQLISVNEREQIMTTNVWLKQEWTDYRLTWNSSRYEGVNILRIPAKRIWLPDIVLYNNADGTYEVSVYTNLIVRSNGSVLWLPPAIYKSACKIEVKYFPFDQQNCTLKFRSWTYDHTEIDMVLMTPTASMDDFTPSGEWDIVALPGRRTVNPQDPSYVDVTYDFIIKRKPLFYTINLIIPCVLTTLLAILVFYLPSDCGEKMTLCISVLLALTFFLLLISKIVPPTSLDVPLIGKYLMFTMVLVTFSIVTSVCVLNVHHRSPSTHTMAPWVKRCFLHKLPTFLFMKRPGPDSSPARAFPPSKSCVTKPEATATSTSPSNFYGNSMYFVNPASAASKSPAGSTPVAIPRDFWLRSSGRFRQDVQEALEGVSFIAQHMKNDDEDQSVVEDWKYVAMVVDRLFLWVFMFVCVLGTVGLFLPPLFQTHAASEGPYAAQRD"}, "(α3β4)2α3 nAChR [9]": {"molecular_target": "T7, (α3β4)2α3 nAChR (Homo sapiens, UniProt P30926+P32297)", "T7 sequence (P32297 32-505 limits assumed)": "as the sequence (P32297 32-505 limits assumed) above", "T7 sequence (P30926 22-498 limits assumed)": "as the sequence (P30926 22-498 limits assumed) above"}, "α4β2α5 nAChR [10]": {"molecular_target": "T5, α4β2α5 nAChR", "test": "cell-based", "settings": "read-out: ACh EC90"}, "α6/α3β2β3 nAChR": {"molecular_target": "α6/α3β2β3 nAChR (Homo sapiens, UniProt P17787+P32297+Q05901+Q15825)", "test": "cell-based"}, "α4β2α5 nAChR [11]": {"molecular_target": "T5, α4β2α5 nAChR", "test": "cell-based"}, "(α4β2)2β2 nAChR [12]": {"molecular_target": "T2, (α4β2)2β2 nAChR", "test": "cell-based", "settings": "read-out: % Max Inhibition (95% CI)"}, "(α4β2)2α4 nAChR [13]": {"molecular_target": "T3, (α4β2)2α4 nAChR", "test": "cell-based"}, "(α3β2)2β2 nAChR [14]": {"molecular_target": "T4, (α3β2)2β2 nAChR", "test": "cell-based", "settings": "read-out: % Max Inhibition (95% CI)"}, "(α3β2)2α3 nAChR": {"molecular_target": "(α3β2)2α3 nAChR (Homo sapiens, UniProt P17787+P32297)", "sequence (P32297 32-505 limits assumed)": "as the sequence (P32297 32-505 limits assumed) above", "sequence (P17787 26-502 limits assumed)": "as the sequence (P17787 26-502) above", "test": "cell-based", "settings": "read-out: % Max Inhibition (95% CI)"}, "(α3β4)2β4 nAChR [15]": {"molecular_target": "T6, (α3β4)2β4 nAChR", "test": "cell-based", "settings": "read-out: % Max Inhibition (95% CI)"}, "(α3β4)2α3 nAChR [16]": {"molecular_target": "T7, (α3β4)2α3 nAChR", "test": "cell-based", "settings": "read-out: % Max Inhibition (95% CI)"}, "[17]": {"settings": "read-out: % Max Inhibition (95% CI)"}},
  "note": "Values joined by “and” are separate entries in the source; they are usually repeats but may differ in a detail not shown here. Identical values can stand only once. Like-named read-outs stand apart in the source and are kept apart here.",
  "data": [
    {"smiles": "CCN1C[C@]2(COC(=O)c3ccccc3N3C(=O)C[C@H](C)C3=O)CC[C@H](OC)[C@@]34[C@@H]5C[C@H]6[C@H](OC)[C@@H]5[C@](O)(C[C@@H]6OC)[C@@](O)([C@@H](OC)[C@H]23)[C@@H]14", "note": "[MLA, Methyllycaconitine]", "values": [
      {"measurement": "block of ACh EC90 response by MLA", "setting": "α7 nAChR [1]", "result": "prevented α7 nAChR activation"},
      {"measurement": "NH (95% CI) of ACh curve with co-applied MLA", "setting": "α7 nAChR [2]", "result": "0.9 (0.8 - 1.1) and 1.1 (0.9 - 1.2)"},
      {"measurement": "IC50", "setting": "α7 nAChR [2]; IC50 (95% CI): ACh apparent potency with co-applied MLA", "result": "330 µM and 412 µM"}
    ]},
    {"smiles": "CC(=O)OCC[N+](C)(C)C", "note": "[ACh, acetylcholine]", "values": [
      {"measurement": "NH (95% CI) of ACh curve, drug treatment none", "setting": "α7 nAChR [2]", "result": "1.1 (1.0 - 1.2)"},
      {"measurement": "NH (1) (95% CI)", "setting": "α7 nAChR [3]", "result": "1.6 (1.4 – 1.9)"},
      {"measurement": "EC90", "setting": "α7 nAChR [3]; read-out: ACh EC90", "result": 1260, "unit": "µM"},
      {"measurement": "NH (1) (95% CI)", "setting": "β3-α6-β2-α4-β2 nAChR", "result": "0.77 (0.69 – 0.85)"},
      {"measurement": "EC90", "setting": "β3-α6-β2-α4-β2 nAChR; read-out: ACh EC90", "result": 40, "unit": "µM"},
      {"measurement": "NH (1) (95% CI)", "setting": "(α4β2)2β2 nAChR [4]", "result": "0.85 (0.76 – 0.95)"},
      {"measurement": "EC90", "setting": "(α4β2)2β2 nAChR [4]; read-out: ACh EC90", "result": 100, "unit": "µM"},
      {"measurement": "EC90", "setting": "(α4β2)2α4 nAChR [5]", "result": 316, "unit": "µM"},
      {"measurement": "NH (1) (95% CI)", "setting": "(α3β2)2β2 nAChR [6]", "result": "0.95 (0.84 – 1.1)"},
      {"measurement": "EC90", "setting": "(α3β2)2β2 nAChR [6]; read-out: ACh EC90", "result": 316, "unit": "µM"},
      {"measurement": "NH (1) (95% CI)", "setting": "α4β2α5 nAChR [7]", "result": "0.90 (0.82 – 0.99)"},
      {"measurement": "NH (1) (95% CI)", "setting": "(α3β4)2β4 nAChR [8]", "result": "1.0 (0.92 – 1.2)"},
      {"measurement": "NH (1) (95% CI)", "setting": "(α3β4)2α3 nAChR [9]", "result": "1.9 (1.7 – 2.1)"},
      {"measurement": "EC90", "setting": "α4β2α5 nAChR [10]", "result": 20, "unit": "µM"}
    ]},
    {"smiles": "CC[C@H](C)[C@H](NC(=O)[C@H](CC(=O)O)NC(=O)[C@H](CS)NC(=O)[C@H](CO)NC(=O)[C@@H](NC(=O)CNC(=O)[C@H](CC(C)C)NC(=O)[C@H](CCCNC(=N)N)NC(=O)[C@@H]1CCCN1C(=O)[C@H](CC(N)=O)NC(=O)[C@H](CCC(=O)O)NC(=O)[C@@H]1CCCN1C(=O)[C@H](CCSC)NC(=O)[C@H](Cc1c[nH]c2ccccc12)NC(=O)[C@@H](NC(=O)[C@@H](NC(=O)[C@@H](N)Cc1ccc(O)cc1)[C@@H](C)O)[C@@H](C)CC)[C@@H](C)O)C(=O)N[C@@H](Cc1ccccc1)C(=O)N[C@H](C(=O)N[C@@H](CC(N)=O)C(=O)N[C@@H](CO)C(=O)N[C@@H](CCCNC(=N)N)C(=O)NCC(=O)N[C@@H](CCCCN)C(=O)N[C@@H](CCCNC(=N)N)C(=O)N[C@@H](C)C(=O)N[C@@H](CO)C(=O)N[C@@H](CCCCN)C(=O)NCC(=O)O)[C@@H](C)O", "note": "[RVG peptide]", "values": [
      {"measurement": "% Max Inhibition of ACh EC90 (95% CI)", "setting": "α7 nAChR [1]", "result": "98 (97 – 99) %"},
      {"measurement": "IC50", "setting": "α7 nAChR [1]", "result": 25, "unit": "µM"},
      {"measurement": "IC50", "setting": "α6/α3β2β3 nAChR", "result": 300, "unit": "µM"},
      {"measurement": "inhibition at 1000 µM", "setting": "α6/α3β2β3 nAChR; [17]", "result": 82, "unit": "%"},
      {"measurement": "IC50", "setting": "α4β2α5 nAChR [11]", "result": 340, "unit": "µM"},
      {"measurement": "inhibition at 1000 µM", "setting": "α4β2α5 nAChR [11]; [17]", "result": 67, "unit": "%"},
      {"measurement": "inhibition at 1000 µM", "setting": "(α4β2)2β2 nAChR [12]", "result": 46, "unit": "%"},
      {"measurement": "IC50", "setting": "(α4β2)2α4 nAChR [13]; IC50 (95% CI)", "result": 270, "unit": "µM"},
      {"measurement": "IC50", "setting": "(α4β2)2α4 nAChR [13]; IC50, 95% CI", "result": "220 to 340", "unit": "µM"},
      {"measurement": "inhibition at 1000 µM", "setting": "(α4β2)2α4 nAChR [13]; [17]", "result": 76, "unit": "%"},
      {"measurement": "inhibition at 1000 µM", "setting": "(α3β2)2β2 nAChR [14]", "result": 57, "unit": "%"},
      {"measurement": "inhibition at 1000 µM", "setting": "(α3β2)2α3 nAChR", "result": 67, "unit": "%"},
      {"measurement": "inhibition at 1000 µM", "setting": "(α3β4)2β4 nAChR [15]", "result": 22, "unit": "%"},
      {"measurement": "inhibition at 1000 µM", "setting": "(α3β4)2α3 nAChR [16]", "result": 49, "unit": "%"}
    ]}
  ]
}
